Measured values as given in US20130011493A1, “PLANT DISEASE CONTROLLING COMPOSITION AND METHOD FOR CONTROLLING PLANT DISEASE” (SUMITOMO CHEMICAL COMPANY, LIMITED, priority 2010, published 2013).

Tested on: gray mold fungus (Botrytis cinerea)
Assay: cucumber leaf disk preventive test against gray mold fungus
Assay type: in vivo
Settings: 15° C., four days
Protocol: To a SUS beaker are added 30 parts of the present compound (racemate), 5 parts of Soprophor FLK (polyoxyethylene tristyrylphenyl ether phosphate, produced by Rhodia Nicca Ltd.), 65 parts of ion-exchange water and 150 parts of glass beads (1.0 mm diameter). The mixture is subjected to grinding at a velocity of 1000 rpm with cooling to 10° C., and thereafter the glass beads are separated, so as to obtain a flowable formulation comprising the present compound (racemate).
True leaf of cucumber is punched out with cork borer to 13 mm in diameter to prepare a leaf disk. In 24 well microwell plate that is dispensed with 1 ml 0.8% water agar, the leaf disk is placed such that the upper side of the leaf is in an upward direction. […]
After confirming that the testing medical solution is dried, conidium of gray mold fungus (Botrytis cinerea) is suspended into potato dextrose broth (DIFCO) in a density of about 10^5 conidium/mL and is then subjected to a spray inoculation. After leaving to stand the leaf disk in a growth chamber set up at 15° C. for four days, an onset area on the leaf is measured and then calculated an onset area rate (hereinafter, referred to as an onset area rate of treated group). […]
A preventive value is calculated from the above onset area rate of treated group and the onset area rate of non-treated group by the following equation: […]

copper hydrochloride
preventive value (%) (copper hydrochloride alone 0.5 ppm): 10% | preventive value (%) (copper hydrochloride alone 5.0 ppm): 15%
